Data set [1] in a line: ocular tolerability in rabbits, topical ophthalmic solution. The class given is in vivo, rabbits (New Zealand white rabbits). As to the method:
Drug concentrations are expressed in terms of the active ingredient (base). The compounds of this invention are dissolved in a suitable ophthalmic solution (e.g., 0.5% Polysorbate-80, 0.02% benzalkonium chloride, 0.1% EDTA, 4.5% mannitol in 5 mM citrate) at 22, 2.2 and 0.22 μM for rabbit study and 111, 33, 11, and 1.1 μM for monkey studies. Drug or vehicle aliquots (25 ul) are administered topically unilaterally or bilaterally. In unilateral applications, the contralateral eyes receive an equal volume of vehicle. Proparacaine (0.5%) is applied to the cornea prior to tonometry to minimize discomfort. Intraocular pressure (IOP) is recorded using a pneumatic tonometer (Alcon Applanation Pneumatonograph) or equivalent.

The nature of data set [2]: ocular tolerability in cynomolgus monkeys. Particulars: compared to compounds disclosed in WO 2004/085430 (Example 2). The data set is classed as in vivo.
Data set [3] deals with ROS 17/2.8 rat osteosarcoma cells. As to the kind of experiment: effect on intracellular cAMP in ROS 17/2.8 cells. The class given is cell-based. On the procedure: (§1) RCT-1 and RCT-3 are clonal cell lines immortalized by SV-40 large T antigen from cells released from fetal rat calvair by a combination collagenase/hyaluronidase digestion. RCT-1 cells, derived from cells released during the first 10 minutes of digestion (fraction I), are cultured in RPMI 1640 medium (BRL) with 10% fetal bovine serum and 0.4 mg/ml G418 (BRL). These cells differentiate and express osteoblastic features upon retinoic acid treatment. RCT-3 cells, immortalized from osteoblast-enriched fraction III cells, are cultured in F-12 medium (BRL) with 5% Fetal bovine serum and 0.4 mg/ml G418. TRAB-11 cells are also immortalized by SV40 large T antigen from adult rat tibia and are cultured in RPMI 1640 medium with 10% FBS and 0.4 mg/ml G418. ROS 17/2.8 rat osteosarcoma cells are cultured in F-12 containing 5% FBS. Osteoblast-enriched (fraction III) primary fetal rat calvaria cells are obtained by collagenase/hyaluronidase digestion of calvariae of 19 day-old rat fetuses. See Rodan et al., Growth stimulation of rat calvaria osteoblastic cells by acidic FGF, Endocrinology, 121, 1919-1923 (1987), which is incorporated by reference herein in its entirety. Cells are released during 30-50 minutes digestion (fraction […]) and are cultured in F-12 medium containing 5% FBS. […]

For data set [4], the system named is RCT-3 cells. As to the kind of experiment: effect on intracellular cAMP in RCT-3 cells. The class given is cell-based, rat. As to the method:
as §1

For data set [5], the system named is TRAB-11 cells. As to the kind of experiment: effect on intracellular cAMP in TRAB-11 cells. The data set is classed as cell-based, rat. On the procedure:
as §1

Data set [6] concerns EP4 mRNA in RP-1 periosteal cells. As to the kind of experiment: EP4 mRNA expression (Northern blot) in RP-1 periosteal cells. The class given is cell-based, rat. Particulars: 10^−6 M. On the procedure: (§2) RP-1 periosteal cells are spontaneously immortalized from primary cultures of periosteal cells from tibae of 4-week old Sprague-Dawley rats and are cultured in DMEM (BRL, Gaithersburg, Md.) with 10% fetal bovine serum (JRH Biosciences, Lenexa, Kans.).
(§3) Total RNA is extracted from the tibial metaphysis or diaphysis and calvaria using a guanidinium isothiocyanate-phenol-chloroform method after pulverizing frozen bone samples by a tissue homogenizer. See P. Chomczynski et al., Single-step method of RNA isolation by acid guanidium thiocyanate-phenol-chloroform extraction., Analyt Biochem, 162, 156-159 (1987), which is incorporated by reference herein in its entirety. RNA samples ([…]) are separated on 0.9% agarose/formaldehyde gels and transferred onto nylon membranes (Boehringer Mannheim, Germany). Membranes are prehybridized in Hybrisol I (Oncor, Gaithersburg, Md.) and 0.5 mg/ml sonicated salmon sperm DNA (Boehringer) at 42° C. for 3 hours and are hybridized at 42° C. with rat EP2 and mouse EP4 cDNA probes labeled with [^32P]-dCTP (Amersham, Buckinghamshire, UK) by random priming using the rediprime kit (Amersham). After hybridization, membranes are washed 4 times in 2×SSC+0.1% SDS at room temperature for a total of 1 hour and once with 0.2×SSC+0.1% SDS at 55° C. for 1 hour and then exposed to Kodak XAR 2 film at −70° C. using intensifying screens. […]

Data set [7] relates to EP4 mRNA in RCT-3 cells. As to the kind of experiment: EP4 mRNA expression (Northern blot) in RCT-3 cells. The data set is classed as cell-based, rat. As to the method:
as §1

In data set [8] the test system is EP2 mRNA in RP-1 cells. As to the kind of experiment: EP2 mRNA expression (Northern blot) in RP-1 cells. The data set is classed as cell-based, rat. As to the method: as §2, §3
For data set [9], the system named is EP4 mRNA in bone tissue. As to the kind of experiment: EP4 mRNA levels in bone tissue of rats after systemic injection (Northern blot). The class given is in vivo, rat. The settings on record: five-week-old male rats; 3-6 mg/Kg injected.
Excerpt: For mRNA localization experiments, 5-week old Sprague-Dawley rats (Charles River) are euthanized by CO2, their tibiae and calvariae are excised, cleaned of soft tissues and frozen immediately in liquid nitrogen. […] Animals are euthanized at several time points post-injection and their tibiae and calvariae, as well as samples from lung and kidney tissues are frozen in liquid nitrogen.
as §3, with “(Amersham).” for “(Amersham). After hybridization, membranes are washed 4 times in 2×SSC+0.1% SDS at room temperature for a total of 1 hour and once with 0.2×SSC+0.1% SDS at 55° C. for 1 hour and then exposed to Kodak XAR 2 film at −70° C. using intensifying screens.”

Data set [10] deals with EP2 mRNA in bone tissue. As to the kind of experiment: EP2 mRNA in bone tissue of rats after systemic injection (Northern blot). The data set is classed as in vivo, rat. Particulars: 3-6 mg/Kg injected. As to the method:
(§4) For mRNA localization experiments, 5-week old Sprague-Dawley rats (Charles River) are euthanized by CO2, their tibiae and calvariae are excised, cleaned of soft tissues and frozen immediately in liquid nitrogen. For EP4 regulation experiments, 6-week old rats are given a single injection of either vehicle (7% ethanol in sterile water) or an anabolic dose of PGE2 (Cayman Chemical, Ann Arbor, Mich.), 3-6 mg/kg in the same vehicle) intraperitoneally. Animals are euthanized at several time points post-injection and their tibiae and calvariae, as well as samples from lung and kidney tissues are frozen in liquid nitrogen.
Total RNA is extracted from the tibial metaphysis or diaphysis and calvaria using a guanidinium isothiocyanate-phenol-chloroform method after pulverizing frozen bone samples by a tissue homogenizer. See P. Chomczynski et al., Single-step method of RNA isolation by acid guanidium thiocyanate-phenol-chloroform extraction., Analyt Biochem, 162, 156-159 (1987), which is incorporated by reference herein in its entirety. RNA samples ([…]) are separated on 0.9% agarose/formaldehyde gels and transferred onto nylon membranes (Boehringer Mannheim, Germany). […]

For data set [11], the system named is EP4 expression in bone marrow cells. As to the kind of experiment: localization of EP4 mRNA expression in bone tissue by in situ hybridization. The data set is classed as in vivo, rat. The settings on record: rats, single anabolic dose. As to the method: as §4
Frozen tibiae are sectioned coronally at […] thickness and sections are mounted on charged slides (Probe On Plus, Fisher Scientific, Springfield, N.J.) and are kept at −70° C. until hybridization. cRNA probes are labeled with ^35S-UTPgS (ICN, Costa Mesa, Calif.) using a Riboprobe II kit (Promega Madison, Wis.). Hybridization is performed overnight at 50° C. […]
In situ hybridization is used in order to localize cells expressing EP4 in bone. In control experiment (vehicle-injected) rats, low expression of EP4 is detected in bone marrow cells. […]

`CC(C)OC(=O)c1ccc(CCN2C(=O)OCC[C@@H]2CC[C@@H](O)C(F)(F)c2cccc(Br)c2)cc1` [Example 3, isopropyl 4-(2-{(4S)-4-[(3R)-4-(3-bromophenyl)-4,4-difluoro-3-hydroxybutyl]-2-oxo-1,3-oxazinan-3-yl}ethyl)benzoate]: the “drug treatment related ocular adverse effects (eye closure)” value in data set [1] (New Zealand white rabbits, single dose, topical, unilateral, 2.2 μM (25 μL) ophthalmic solution, vehicle panel-controlled) was “very slight drug treatment related ocular adverse effects (eye closure)”.
As to `CC(C)OC(=O)c1ccc(CCN2C(=O)OCC[C@@H]2/C=C/[C@@H](O)C(F)(F)c2cccc(Br)c2)cc1` [Example 1, isopropyl 4-(2-{(4R)-4-[(1E,3R)-4-(3-bromophenyl)-4,4-difluoro-3-hydroxybut-1-en-1-yl]-2-oxo-1,3-oxazinan-3-yl}ethyl)benzoate], the ocular tolerability entry in [1] (rabbits, compared to compounds disclosed in WO 2004/085430 (Example 2)) is “improved ocular tolerability”; in data set [2], “improved ocular tolerability”.
`CCCCC[C@H](O)/C=C/[C@H]1[C@H](O)CC(=O)[C@@H]1C/C=C\CCCC(=O)O` [PGE2]: the “effect on intracellular cAMP” value is reported as “no effect” in data set [3], “markedly induced” in data set [4] and “markedly induced” in data set [5]. Also, the “effect on EP4 mRNA levels” value is listed as “rapidly increases EP4 mRNA levels” in data set [6] and “no effect” in data set [7]. Also, the “time of peak EP4 mRNA levels after treatment” value in [6] came to 2 h. For the same compound, the “EP2 mRNA expression before or after treatment” value in data set [8] is given as “not expressed”. Moreover, in data set [9], the “effect on EP4 mRNA levels in the tibial diaphysis” value is given as “rapidly increased EP4 mRNA levels”. Besides, the “time of peak EP4 mRNA levels in the tibial diaphysis after injection” value in [9] is listed as 2 h. For the same compound, in [10], the “induction of EP2 mRNA in bone tissue” value was “does not induce EP2 mRNA”. For the same compound, the “expression of EP4 in bone marrow cells” value in data set [11] is recorded as “increased the expression of EP4 in bone marrow cells”.
